Laboratory results taken from US20240091248A1, “METHODS OF TREATING ACUTE MYELOID LEUKEMIA AND MANAGING CYTOPENIA” (GENENTECH, INC., priority 2021, published 2024).

What was measured:
[1] = system: patients with acute myeloid leukemia (AML); assay: venetoclax exposure versus overall survival in CR/CRh patients with post-remission cytopenia; assay type: in vivo, human; conditions: switched to 21-day dosing or remained on 28-day dosing, Cox proportional-hazards models
Mcl-1 = Mcl-1 (Homo sapiens, UniProt Q07820); conditions: cited from earlier work
[2] = system: patients with acute myeloid leukemia (AML); assay: measurable residual disease (MRD) response analysis of the phase 3 study; assay type: in vivo, human; conditions: p<0.001
Experimental: Methods: Enrolled patients were ≥18 years and unfit for intensive chemotherapy. Patients received Ven 400 mg orally; days 1-28 and Aza 75 mg/m^2; days 1-7/28-day cycle. Bone marrow aspirate samples for multiparametric flow cytometry assessments by integrated leukemia-associated immunophenotypes and different than normal procedures were collected for central analysis (Covance Central Laboratory Services) at baseline, end of cycle 1, and every 3 cycles thereafter. Assessments were performed independent of disease responses. MRD response was defined as <1 residual blast/1000 leukocytes (<10^−3). CRc, DoR, OS, and EFS were assessed. Disease assessments were per modified International Working Group response criteria for AML.

Sequence of Mcl-1 (Q07820 whole entry): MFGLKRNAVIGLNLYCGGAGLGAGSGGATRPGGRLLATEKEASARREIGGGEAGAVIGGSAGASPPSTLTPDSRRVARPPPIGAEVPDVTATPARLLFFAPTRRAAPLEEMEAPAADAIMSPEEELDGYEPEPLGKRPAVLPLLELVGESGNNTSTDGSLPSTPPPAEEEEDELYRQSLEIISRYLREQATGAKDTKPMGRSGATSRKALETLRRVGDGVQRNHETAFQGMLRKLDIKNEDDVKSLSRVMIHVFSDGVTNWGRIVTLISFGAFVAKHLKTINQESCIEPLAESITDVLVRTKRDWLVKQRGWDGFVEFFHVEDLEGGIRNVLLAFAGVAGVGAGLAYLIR

Structure (SMILES)	relationship between venetoclax exposure (Cavg) and overall survival [1]	Ki (Mcl-1) [nM]	rate of composite complete remission (CRc) and MRD response (MRD<10^−3) [2] [%]
CC1(C)CCC(CN2CCN(c3ccc(C(=O)NS(=O)(=O)c4ccc(NCC5CCOCC5)c([N+](=O)[O-])c4)c(Oc4cnc5[nH]ccc5c4)c3)CC2)=C(c2ccc(Cl)cc2)C1 [venetoclax, 4-(4-{[2-(4-chlorophenyl)-4,4-dimethylcyclohex-1-en-1-yl]methyl}piperazin-1-yl)-N-({3-nitro-4-[(tetrahydro-2H-pyran-4-ylmethyl)amino]phenyl}sulfonyl)-2-(1H-pyrrolo[2,3-b]pyridin5-yloxy)benzamide]	no apparent relationship	> 444	
Nc1ncn([C@@H]2O[C@H](CO)[C@@H](O)[C@H]2O)c(=O)n1 [Aza, 4-amino-1-β-D-ribofuranosyl-s-triazin-2(1H)-one]			7.6
